Measured values from ChEMBL document CHEMBL1201861, “Genomics of Drug Sensitity in Cancer screening data, Wellcome Trust Sanger Institute”.

How the values were obtained:
Test in all cases: cells
D-392MG = type: functional, cell-based, Homo sapiens
DJM-1 = type: functional, cell-based, Homo sapiens;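 also: growth inhibition of human DJM-1 cells, read out by a cell viability assay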
Description: SANGER: Inhibition of human DJM-1 cell growth in a cell viability assay.

EKVX = type: functional, cell-based, Homo sapiens;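 also: growth inhibition of human EKVX cells, read out with a cell viability assay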
Description: SANGER: Inhibition of human EKVX cell growth in a cell viability assay.

ES4 = type: functional, cell-based, Homo sapiens;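 also: growth inhibition of human ES4 cells, read out by a cell viability assay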
Description: SANGER: Inhibition of human ES4 cell growth in a cell viability assay.

ES5 = type: functional, cell-based, Homo sapiens;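 also: growth inhibition of human ES5 cells, read out by a cell viability assay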
Description: SANGER: Inhibition of human ES5 cell growth in a cell viability assay.

ES7 = type: functional, cell-based, Homo sapiens;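 also: growth inhibition of cultured human ES7 cells, read out as cell viability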
Description: SANGER: Inhibition of human ES7 cell growth in a cell viability assay.

ETK-1 = type: functional, cell-based, Homo sapiens;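 also: growth inhibition of human ETK-1 cells, read out with a cell viability assay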
Description: SANGER: Inhibition of human ETK-1 cell growth in a cell viability assay.

EW-11 = type: functional, cell-based, Homo sapiens;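 also: growth inhibition of human EW-11 cells, measured with a cell viability assay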
Description: SANGER: Inhibition of human EW-11 cell growth in a cell viability assay.

GAK = type: functional, cell-based, Homo sapiens;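 also: cell growth inhibition read out by a cell viability assay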
Description: SANGER: Inhibition of human GAK cell growth in a cell viability assay.

HAL-01 = type: functional, cell-based, Homo sapiens;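 also: growth inhibition of human HAL-01 cells, read out with a cell viability assay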
Description: SANGER: Inhibition of human HAL-01 cell growth in a cell viability assay.

HC-1 = type: functional, cell-based, Homo sapiens;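 also: growth inhibition of HC-1 cells measured by a cell viability assay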
Description: SANGER: Inhibition of human HC-1 cell growth in a cell viability assay.

HD-MY-Z = type: functional, cell-based, Homo sapiens;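 also: growth inhibition of HD-MY-Z cells, read out with a cell viability assay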
Description: SANGER: Inhibition of human HD-MY-Z cell growth in a cell viability assay.

HL-60 = type: functional, cell-based, Homo sapiens;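 also: growth inhibition of human HL-60 cells, read out with a cell viability assay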
Description: SANGER: Inhibition of human HL-60 cell growth in a cell viability assay.

IST-SL1 = type: functional, cell-based, Homo sapiens;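 also: growth inhibition of human IST-SL1 cells, read out with a cell viability assay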
Description: SANGER: Inhibition of human IST-SL1 cell growth in a cell viability assay.

L-363 = type: functional, cell-based, Homo sapiens
Description: SANGER: Inhibition of human L-363 cell growth in a cell viability assay.

LB2241-RCC = type: functional, cell-based, Homo sapiens;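 also: cell viability assay measuring how strongly the cultured human renal carcinoma line is prevented from growing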
Description: SANGER: Inhibition of human LB2241-RCC cell growth in a cell viability assay.

LB771-HNC = type: functional, cell-based, Homo sapiens;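 also: growth inhibition of LB771-HNC human cells, read out with a cell viability assay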
Description: SANGER: Inhibition of human LB771-HNC cell growth in a cell viability assay.

LB831-BLC = type: functional, cell-based, Homo sapiens;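 also: growth inhibition of LB831-BLC cells, read out with a cell viability assay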
Description: SANGER: Inhibition of human LB831-BLC cell growth in a cell viability assay.

LS-1034 = type: functional, cell-based, Homo sapiens
Description: SANGER: Inhibition of human LS-1034 cell growth in a cell viability assay.

MEG-01 = type: functional, cell-based, Homo sapiens;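 also: growth inhibition of MEG-01 cells, read out by a cell viability assay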
Description: SANGER: Inhibition of human MEG-01 cell growth in a cell viability assay.

MFM-223 = type: functional, cell-based, Homo sapiens
Description: SANGER: Inhibition of human MFM-223 cell growth in a cell viability assay.

MHH-PREB-1 = type: functional, cell-based, Homo sapiens;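 also: cell viability assay measuring inhibition of proliferation of human MHH-PREB-1 cells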
Description: SANGER: Inhibition of human MHH-PREB-1 cell growth in a cell viability assay.

MOLT-16 = type: functional, cell-based, Homo sapiens;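 also: growth inhibition of human MOLT-16 cells, read out with a cell viability assay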
Description: SANGER: Inhibition of human MOLT-16 cell growth in a cell viability assay.

MOLT-4 = type: functional, cell-based, Homo sapiens;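 also: growth inhibition of MOLT-4 cells, determined with a cell viability readout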
Description: SANGER: Inhibition of human MOLT-4 cell growth in a cell viability assay.

MZ7-mel = type: functional, cell-based, Homo sapiens;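 also: growth inhibition of human MZ7-mel cells, measured by a cell viability assay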
Description: SANGER: Inhibition of human MZ7-mel cell growth in a cell viability assay.

Mo = type: functional, cell-based, Homo sapiens
Description: SANGER: Inhibition of human Mo-T cell growth in a cell viability assay.

NB12 = type: functional, cell-based, Homo sapiens;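 also: growth inhibition of human NB12 cells, read out by a cell viability assay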
Description: SANGER: Inhibition of human NB12 cell growth in a cell viability assay.

NB6 = type: functional, cell-based, Homo sapiens
Description: SANGER: Inhibition of human NB6 cell growth in a cell viability assay.

NB69 = type: functional, cell-based, Homo sapiens;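 also: growth inhibition of NB69 cells, determined by a cell viability assay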
Description: SANGER: Inhibition of human NB69 cell growth in a cell viability assay.

NCI-H1838 = type: functional, cell-based, Homo sapiens;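 also: growth inhibition of NCI-H1838 cells, determined with a cell viability readout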
Description: SANGER: Inhibition of human NCI-H1838 cell growth in a cell viability assay.

NCI-H446 = type: functional, cell-based, Homo sapiens;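 also: growth inhibition of NCI-H446 cells determined by a cell viability assay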
Description: SANGER: Inhibition of human NCI-H446 cell growth in a cell viability assay.

NKM-1 = type: functional, cell-based, Homo sapiens;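 also: growth inhibition of NKM-1 cells, read out with a cell viability assay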
Description: SANGER: Inhibition of human NKM-1 cell growth in a cell viability assay.

NOS-1 = type: functional, cell-based, Homo sapiens;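 also: growth inhibition of the human NOS-1 cell line, read out with a cell viability assay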
Description: SANGER: Inhibition of human NOS-1 cell growth in a cell viability assay.

P30-OHK = type: functional, cell-based, Homo sapiens;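 also: growth inhibition of the P30-OHK cell line, read out with a cell viability assay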
Description: SANGER: Inhibition of human P30-OHK cell growth in a cell viability assay.

RCC10RGB = type: functional, cell-based, Homo sapiens;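 also: growth inhibition of human RCC10RGB cells, read out by a cell viability assay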
Description: SANGER: Inhibition of human RCC10RGB cell growth in a cell viability assay.

SCC-15 = type: functional, cell-based, Homo sapiens;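 also: growth inhibition of SCC-15 cells, read out with a cell viability assay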
Description: SANGER: Inhibition of human SCC-15 cell growth in a cell viability assay.

SF-268 = type: functional, cell-based, Homo sapiens;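 also: growth inhibition of SF-268 cells determined with a cell viability assay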
Description: SANGER: Inhibition of human SF268 cell growth in a cell viability assay.

SH-4 = type: functional, cell-based, Homo sapiens;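 also: growth inhibition of SH-4 cells, read out with a cell viability assay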
Description: SANGER: Inhibition of human SH-4 cell growth in a cell viability assay.

SNB-75 = type: functional, cell-based, Homo sapiens;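 also: cell viability assay measuring growth inhibition of human SNB-75 cells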
Description: SANGER: Inhibition of human SNB75 cell growth in a cell viability assay.

SW872 = type: functional, cell-based, Homo sapiens;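 also: growth inhibition of SW872 cells, read out by a viability assay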
Description: SANGER: Inhibition of human SW872 cell growth in a cell viability assay.

SW 962 = type: functional, cell-based, Homo sapiens;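 also: growth inhibition of human SW962 cells, read out by a cell viability assay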
Description: SANGER: Inhibition of human SW962 cell growth in a cell viability assay.

SW982 = type: functional, cell-based, Homo sapiens;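 also: growth inhibition of SW982 cells, read out with a cell viability assay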
Description: SANGER: Inhibition of human SW982 cell growth in a cell viability assay.

697 = type: functional, cell-based, Homo sapiens
Description: SANGER: Inhibition of human 697 cell growth in a cell viability assay.

8-MG-BA = type: functional, cell-based, Homo sapiens;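 also: growth inhibition of 8-MG-BA cells, read out with a cell viability assay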
Description: SANGER: Inhibition of human 8-MG-BA cell growth in a cell viability assay.

A4-Fuk = type: functional, cell-based, Homo sapiens;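 also: growth inhibition of A4-Fuk cells, read out by a cell viability assay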
Description: SANGER: Inhibition of human A4-Fuk cell growth in a cell viability assay.

BV-173 = type: functional, cell-based, Homo sapiens
Description: SANGER: Inhibition of human BV-173 cell growth in a cell viability assay.

TE-5 = type: functional, cell-based, Homo sapiens;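 also: inhibition of cell growth, read out by a cell viability assay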
Description: SANGER: Inhibition of human TE-5 cell growth in a cell viability assay.

TE-8 = type: functional, cell-based, Homo sapiens;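 also: growth inhibition of TE-8 cells, measured with a cell viability readout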
Description: SANGER: Inhibition of human TE-8 cell growth in a cell viability assay.

TGBC24TKB = type: functional, cell-based, Homo sapiens;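 also: growth inhibition of human TGBC24TKB cells, read out with a cell viability assay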
Description: SANGER: Inhibition of human TGBC24TKB cell growth in a cell viability assay.

U-87 MG = type: functional, cell-based, Homo sapiens, U-87MG ATCC;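 also: growth inhibition of the cells measured with a viability assay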
Description: SANGER: Inhibition of human U-87-MG cell growth in a cell viability assay.

CISPLATIN
IC50 (D-392MG; d-392mg): 11.9 µM | IC50 (DJM-1; djm-1): 6.36 µM | IC50 (EKVX; ekvx): 485 µM | IC50 (ES4; es4): 1.6 µM | IC50 (ES5; es5): 3.32 µM | IC50 (ES7; es7): 1.87 µM | IC50 (ETK-1; etk-1): 49.8 µM | IC50 (EW-11; ew-11): 21 µM | IC50 (GAK; gak): 490 µM | IC50 (HAL-01; hal-01): 109 µM | IC50 (HC-1; hc-1): 9.5 µM | IC50 (HD-MY-Z; hd-my-z): 18 µM | IC50 (HL-60; hl-60): 8.69 µM | IC50 (IST-SL1; ist-sl1): 70.6 µM | IC50 (L-363; l-363): 4.01 µM | IC50 (LB2241-RCC; lb2241-rcc): 11.3 µM | IC50 (LB771-HNC; lb771-hnc): 89.8 µM | IC50 (LB831-BLC; lb831-blc): 225 µM | IC50 (LS-1034; ls-1034): 22.7 µM | IC50 (MEG-01; meg-01): 21.7 µM | IC50 (MFM-223; mfm-223): 615 µM | IC50 (MHH-PREB-1; mhh-preb-1): 23.8 µM | IC50 (MOLT-16; molt-16): 8.36 µM | IC50 (MOLT-4; molt-4): 88.8 µM | IC50 (MZ7-mel; mz7-mel): 6.68 µM | IC50 (Mo; mo): 892 µM | IC50 (NB12; nb12): 166 µM | IC50 (NB6; nb6): 318 µM | IC50 (NB69; nb69): 52.1 µM | IC50 (NCI-H1838; nci-h1838): 281 µM | IC50 (NCI-H446; nci-h446): 37.4 µM | IC50 (NKM-1; nkm-1): 6.04 µM | IC50 (NOS-1; nos-1): 147 µM | IC50 (P30-OHK; p30-ohk): 2.71 µM | IC50 (RCC10RGB; rcc10rgb): 917 µM | IC50 (SCC-15; scc-15): 28.9 µM | IC50 (SF-268; sf-268): 5.12 µM | IC50 (SH-4; sh-4): 68.7 µM | IC50 (SNB-75; snb-75): 48 µM | IC50 (SW872; sw872): 40.8 µM | IC50 (SW 962; sw 962): 64.6 µM | IC50 (SW982; sw982): 23.1 µM | IC50 697: 1.89 µM | IC50 (8-MG-BA; 8-mg-ba): 5.38 µM | IC50 (A4-Fuk; a4-fuk): 47.5 µM | IC50 (BV-173; bv-173): 42.1 µM | IC50 (TE-5; te-5): 211 µM | IC50 (TE-8; te-8): 16.5 µM | IC50 (TGBC24TKB; tgbc24tkb): 39.8 µM | IC50 (U-87 MG; u-87mg atcc): 16.2 µM

COc1cccc2c1C(=O)c1c(O)c3c(c(O)c1C2=O)C[C@@](O)(C(=O)CO)C[C@@H]3O[C@H]1C[C@H](N)[C@H](O)[C@H](C)O1 [DOXORUBICIN]
IC50 (D-392MG; Homo sapiens, D-392MG): 0.249 µM | IC50 (DJM-1; Homo sapiens, DJM-1): 0.102 µM | IC50 (EKVX; Homo sapiens, EKVX): 0.872 µM | IC50 (ES4; Homo sapiens, ES4): 0.00611 µM | IC50 (ES5; Homo sapiens, ES5): 0.0392 µM | IC50 (ES7; Homo sapiens, ES7): 0.0514 µM | IC50 (ETK-1; Homo sapiens, ETK-1): 0.083 µM | IC50 (EW-11; Homo sapiens, EW-11): 0.342 µM | IC50 (GAK; Homo sapiens, GAK): 0.257 µM | IC50 (HAL-01; Homo sapiens, HAL-01): 0.313 µM | IC50 (HC-1; Homo sapiens, HC-1): 0.0373 µM | IC50 (HD-MY-Z; Homo sapiens, HD-MY-Z): 0.273 µM | IC50 (HL-60; Homo sapiens, HL-60): 0.0626 µM | IC50 (IST-SL1; Homo sapiens, IST-SL1): 0.517 µM | IC50 (L-363; Homo sapiens, L-363): 0.324 µM | IC50 (LB2241-RCC; Homo sapiens, LB2241-RCC): 0.235 µM | IC50 (LB771-HNC; Homo sapiens, LB771-HNC): > 1.02 µM | IC50 (LB831-BLC; Homo sapiens, LB831-BLC): 0.206 µM | IC50 (LS-1034; Homo sapiens, LS-1034): 0.385 µM | IC50 (MEG-01; Homo sapiens, MEG-01): 0.177 µM | IC50 (MFM-223; Homo sapiens, MFM-223): > 1.02 µM | IC50 (MHH-PREB-1; Homo sapiens, MHH-PREB-1): 0.23 µM | IC50 (MOLT-16; Homo sapiens, MOLT-16): 0.29 µM | IC50 (MOLT-4; Homo sapiens, MOLT-4): 0.0229 µM | IC50 (MZ7-mel; Homo sapiens, MZ7-mel): 0.113 µM | IC50 (Mo; Homo sapiens, Mo): 0.805 µM | IC50 (NB12; Homo sapiens, NB12): 0.277 µM | IC50 (NB6; Homo sapiens, NB6): > 1.02 µM | IC50 (NB69; Homo sapiens, NB69): 0.0792 µM | IC50 (NCI-H1838; Homo sapiens, NCI-H1838): 0.405 µM | IC50 (NCI-H446; Homo sapiens, NCI-H446): > 1.02 µM | IC50 (NKM-1; Homo sapiens, NKM-1): 0.0295 µM | IC50 (NOS-1; Homo sapiens, NOS-1): 0.0791 µM | IC50 (P30-OHK; Homo sapiens, P30-OHK): 0.0576 µM | IC50 (RCC10RGB; Homo sapiens, RCC10RGB): > 1.02 µM | IC50 (SCC-15; Homo sapiens, SCC-15): 0.188 µM | IC50 (SF-268; Homo sapiens, SF-268): 0.0924 µM | IC50 (SH-4; Homo sapiens, SH-4): 0.0921 µM | IC50 (SNB-75; Homo sapiens, SNB-75): 0.149 µM | IC50 (SW872; Homo sapiens, SW872): 0.121 µM | IC50 (SW 962; Homo sapiens, SW 962): 0.0699 µM | IC50 (SW982; Homo sapiens, SW982): 0.00605 µM | IC50 (697; Homo sapiens): 0.0191 µM | IC50 (8-MG-BA; Homo sapiens, 8-MG-BA): 0.0221 µM | IC50 (A4-Fuk; Homo sapiens, A4-Fuk): 0.162 µM | IC50 (BV-173; Homo sapiens, BV-173): 0.251 µM | IC50 (TE-5; Homo sapiens, TE-5): 0.0375 µM | IC50 (TE-8; Homo sapiens, TE-8): 0.0075 µM | IC50 (TGBC24TKB; Homo sapiens, TGBC24TKB): > 1.02 µM | IC50 (U-87 MG; Homo sapiens, U-87 MG): 0.346 µM

CS(=O)(=O)c1ccc(C(=O)Nc2ccc(Cl)c(-c3ccccn3)c2)c(Cl)c1 [VISMODEGIB]
IC50 (D-392MG; Homo sapiens, D-392MG): > 10 µM | IC50 (DJM-1; Homo sapiens, DJM-1): > 10 µM | IC50 (EKVX; Homo sapiens, EKVX): > 10 µM | IC50 (ES4; Homo sapiens, ES4): > 10 µM | IC50 (ES5; Homo sapiens, ES5): > 10 µM | IC50 (ES7; Homo sapiens, ES7): > 10 µM | IC50 (ETK-1; Homo sapiens, ETK-1): > 10 µM | IC50 (EW-11; Homo sapiens, EW-11): > 10 µM | IC50 (GAK; Homo sapiens, GAK): > 10 µM | IC50 (HAL-01; Homo sapiens, HAL-01): > 10 µM | IC50 (HC-1; Homo sapiens, HC-1): > 10 µM | IC50 (HD-MY-Z; Homo sapiens, HD-MY-Z): > 10 µM | IC50 (HL-60; Homo sapiens, HL-60): > 10 µM | IC50 (IST-SL1; Homo sapiens, IST-SL1): > 10 µM | IC50 (L-363; Homo sapiens, L-363): > 10 µM | IC50 (LB2241-RCC; Homo sapiens, LB2241-RCC): > 10 µM | IC50 (LB771-HNC; Homo sapiens, LB771-HNC): > 10 µM | IC50 (LB831-BLC; Homo sapiens, LB831-BLC): > 10 µM | IC50 (LS-1034; Homo sapiens, LS-1034): > 10 µM | IC50 (MEG-01; Homo sapiens, MEG-01): > 10 µM | IC50 (MFM-223; Homo sapiens, MFM-223): > 10 µM | IC50 (MHH-PREB-1; Homo sapiens, MHH-PREB-1): > 10 µM | IC50 (MOLT-16; Homo sapiens, MOLT-16): > 10 µM | IC50 (MOLT-4; Homo sapiens, MOLT-4): > 10 µM | IC50 (MZ7-mel; Homo sapiens, MZ7-mel): > 10 µM | IC50 (Mo; Homo sapiens, Mo): > 10 µM | IC50 (NB12; Homo sapiens, NB12): > 10 µM | IC50 (NB6; Homo sapiens, NB6): > 10 µM | IC50 (NB69; Homo sapiens, NB69): > 10 µM | IC50 (NCI-H1838; Homo sapiens, NCI-H1838): > 10 µM | IC50 (NCI-H446; Homo sapiens, NCI-H446): > 10 µM | IC50 (NKM-1; Homo sapiens, NKM-1): > 10 µM | IC50 (NOS-1; Homo sapiens, NOS-1): > 10 µM | IC50 (P30-OHK; Homo sapiens, P30-OHK): > 10 µM | IC50 (RCC10RGB; Homo sapiens, RCC10RGB): > 10 µM | IC50 (SCC-15; Homo sapiens, SCC-15): > 10 µM | IC50 (SF-268; Homo sapiens, SF-268): > 10 µM | IC50 (SH-4; Homo sapiens, SH-4): > 10 µM | IC50 (SNB-75; Homo sapiens, SNB-75): > 10 µM | IC50 (SW872; Homo sapiens, SW872): > 10 µM | IC50 (SW 962; Homo sapiens, SW 962): > 10 µM | IC50 (SW982; Homo sapiens, SW982): > 10 µM | IC50 (697; Homo sapiens): > 10 µM | IC50 (8-MG-BA; Homo sapiens, 8-MG-BA): > 10 µM | IC50 (A4-Fuk; Homo sapiens, A4-Fuk): > 10 µM | IC50 (BV-173; Homo sapiens, BV-173): > 10 µM | IC50 (TE-5; Homo sapiens, TE-5): > 10 µM | IC50 (TE-8; Homo sapiens, TE-8): > 10 µM | IC50 (TGBC24TKB; Homo sapiens, TGBC24TKB): > 10 µM | IC50 (U-87 MG; Homo sapiens, U-87 MG): > 10 µM
